For this test, the target named is T1, human CCR5 (Homo sapiens, UniProt P51681).
T1 construct: expressed in transfected cells; host or cells: CHO-dhfr(-) cells stably transfected with pEF-BOS-bsr/hCCR5
As to the kind of experiment: Inhibition test on the binding of RANTES to CCR5 (RANTES-induced transient increase of Ca ion). The format is cell-based. To be noted: human CCR5 stably over-expressing CHO cell; recombinant human RANTES 10 nM; intracellular Ca2+ transient increase. Here is the method: (1) Isolation of Human CCR5 Gene
Human placental cDNA was prepared using Marathon cDNA amplification kit (Clontech). PCR primers hCCR5Xbal-F1: 5′-[…]-3′ (SEQ ID NO:1) and hCCR5Xbal-R1: 5′-[…]-3′ (SEQ ID NO:2) were designed based on the sequence of GenBank U54994.
Using the human placental cDNA as the template and using Ex Taq (Takara), PCR reaction (2 minutes at 95° C.→(30 seconds at 95° C., 45 seconds at 60° C., 1 minute at 72° C.)×35 times) was carried out. The thus amplified PCR product was subjected to a 1% agarose gel electrophoresis, purified using QIAquick Gel Extraction Kit (QUIAGEN) and then digested with a restriction enzyme Xbal. The digested fragments were ligated to an expression vector pEF-BOS-bsr using DNA Ligation Kit Ver. […]
The thus established human CCR5 stably over-expressing CHO cell (CCR5/CHO cell) was suspended in Ham's F-12 medium containing FBS (10%) and dispensed in […] portions into a 96 well plate. […] Transient increase in the intracellular Ca^2+ concentration induced by the human RANTES was measured using a Ca^2+ detector for 96 well use (Hamamatsu Photonics), and inhibition ratio (%) of the test compound was calculated by the following calculation formula. Inhibition ratio=(Ec−Ea)/Ec×100 • Ec: measured value of Ca^2+ transient increase by RANTES • Ea: measured value of Ca^2+ transient increase by RANTES when a test compound was added.

Structures can show the parent of a compound that is named as a salt.

T1 sequence (P51681 whole entry): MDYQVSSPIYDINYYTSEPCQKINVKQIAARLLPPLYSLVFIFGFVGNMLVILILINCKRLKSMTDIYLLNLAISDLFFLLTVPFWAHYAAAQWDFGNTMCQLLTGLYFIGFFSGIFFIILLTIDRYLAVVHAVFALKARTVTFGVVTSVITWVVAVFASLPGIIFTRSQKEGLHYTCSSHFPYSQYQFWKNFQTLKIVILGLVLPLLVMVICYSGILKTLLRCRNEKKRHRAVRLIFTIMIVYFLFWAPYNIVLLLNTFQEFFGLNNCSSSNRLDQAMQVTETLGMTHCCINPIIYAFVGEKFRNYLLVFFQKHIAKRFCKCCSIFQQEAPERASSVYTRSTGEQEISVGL

On to `CCCCN1C(=O)[C@H]([C@@H](O)C(C)C)NC(=O)C12CCN(Cc1ccc(Oc3ccccc3)nc1)CC2` [Example 3, (3S)-1-butyl-2,5-dioxo-3-((1S)-1-hydroxy-2-methylpropyl)-9-(6-phenyloxypyridin-3-ylmethyl)-1,4,9-triazaspiro[5.5]undecane.2hydrochloride], for which the IC50 was 370 nM.
Turning to `CCCCN1C(=O)[C@@H]([C@H](O)C(C)C)NC(=O)C12CCN(Cc1ccc(Oc3ccccc3)nc1)CC2` [Example 2, (3R)-1-butyl-2,5-dioxo-3-((1R)-1-hydroxy-2-methylpropyl)-9-(6-phenyloxypyridin-3-ylmethyl)-1,4,9-triazaspiro[5.5]undecane.2hydrochloride], the IC50 came to 27 nM.

These data come from patent US7053090B2, “Triazaspiro[5.5]undecane derivatives and drugs containing the same as the active ingredient” (Ono Pharmaceutical Co., Ltd., priority 2001, dated 2006).
